Four compounds from patent publication US20140154717A1, “METHOD FOR DETECTING CANCER CELL USING FLUORESCENTLY LABELED L-GLUCOSE DERIVATIVE, AND CANCER CELL-IMAGING AGENT COMPRISING FLUORESCENTLY LABELED L-GLUCOSE DERIVATIVE” (priority 2011, published 2014) can be followed below.

Entries after “also recorded” stand apart in the source; their conditions may differ.

A short description of series [1]: Maximum excitation and fluorescence wavelength. The class given is physicochemical.
The next series has as its system tumor cells (C6 glioma). As to the kind of experiment: In vivo fluorescent imaging using C6 tumor model mice (rat glioma C6 cells transplanted subcutaneously in nude mice). Set-up: species or system mouse. The procedure:
C6 cells were prepared according to an ordinary method so that the cell number was 2×10^7 cells/mL.
C6 cells were seeded on a 10 cm petri dish, allowed to stand still in a CO2 incubator, and cultured at 37° C. The culture medium was exchanged once every two days.
1 g/L glucose-containing Dulbecco's modified Eagle's Medium (DMEM) (Nacalai No. 08456-65), to which Fetal Bovine Serum (Equitech-Bio SFBM) was added so that the final concentration was 10% and penicillin-streptomycin (Nacalai No. 26253-84) was added so that the final concentration was 1%, was used.
5 to 6-week old athymic nude mice (BALB/cAJcl-nu/nu) were transplanted with 50 μL of a cell suspension adjusted to 2×10^7 cells/mL subcutaneously around the root of right hind paw, under isoflurane anesthesia. The transplanted tumor cells were observed until growing to about 200 to 300 mm^3, and used in vivo fluorescent imaging.
C6 tumor model mice were allowed to stand still in an in vivo fluorescence imaging apparatus IVIS (registered trademark) Kinetics (Caliper Life sciences) under isoflurane anesthesia and autofluorescence of the mouse skin was measured, and subsequently, 400 nmol (100 μL) of 2-NBDLG or 2-NBDG dissolved in physiological saline was administered from the tail vein over a period of 30 seconds, and measurement of the fluorescence imaging was started again from one minute after starting administration. The in vivo fluorescence imaging was measured at an excitation wavelength of 465 nm using a GFP filter (transmittable fluorescence wavelength: 515-575 nm). The measurement was conducted for 45 minutes, and images were taken every one minute during the initial 20 minute and every 5 minutes from 20 to 45 minutes, obtaining 25 images in total. The accumulated values (fluorescence value) of 2-NBDLG and 2-NBDG in the interested area were obtained by subtracting the autofluorescence images from the 25 images taken after administration of 2-NBDLG or 2-NBDG.
A vial of 0.5 mg of 2-NBDLG or 2-NBDG was dissolved in 400 μL of physiological saline directly before the experiment, to prepare a solution having a final concentration of 400 nmol/100 μL.

Series [2] has as its system mouse insulinoma cells (MIN6). As to the kind of experiment: Uptake into MIN6 cells with or without inhibitors, fluorescence microplate reader (Flex Station). The class given is cell-based. Particulars: 200 μM, 5 minutes. The method, then: A difference in the uptake of 2-NBDLG (200 μM) and 2-NBDG (200 μM) into mouse insulinoma cells (MIN6) each applied for 5 minutes was analyzed quantitatively by a fluorescence microplate reader Flex Station (manufactured by Molecular Devices Corporation) in the condition whether or not various inhibitors are present. The well used for measurement was a 96-well clear bottomed well plate μ CLEAR-PLATE (Greiner bio-one, BLACK, 96 well, #655090) having longitudinally […] to 12 twelve columns, and MIN6 cell suspension prepared at a proportion of 6×10^5 cells/mL was seeded uniformly into wells from line B to line G at the third column and the fifth column each in an amount of 15 μL. For medium exchange, the half quantity was exchanged every two days in 0 to 4 DIV (days in vitro), and from 5 DIV or later, exchanged every day, and on days 10 to 13 (10 to 13 DIV), the cells were subjected to an experiment. Line A and line H were used as a control for checking correct washout, without seeding cells. In the fourth column, cells were not present, and wells in this column were used as a blank containing only Krebs Ringer buffer solution (KRB, containing 0.1 mM gap junction inhibitor carbenoxolone and 5.6 mM glucose). Evaluation was done in a way that 2-NBDLG or 2-NBDG was charged in each tube of a 8-strip PCR tube, and sucked using a 8-channel pipette and dropped simultaneously into wells. In this way, administration to wells for 2-NBDLG and to wells for 2-NBDG can be done simultaneously, making reliable evaluation possible. As described above, cells are present in 12 wells in the third and the fifth two columns, and these were divide into 4 groups each having 3 wells according to a difference either 2-NBDLG or 2-NBDG and whether an inhibitor is present or absent. Specifically, when checking the effect by the presence or absence of a GLUT inhibitor Cytochalasin B (10 μM) on the uptake of 2-NBDLG (200 μM) and 2-NBDG (200 μM), first, in wells, which are planned to be measured in the presence of Cytochalasin B, Cytochalasin B was added 5 minutes prior to the administration of the fluorescently labeled glucose derivative. Before administration of a fluorescently labeled glucose derivative, the autofluorescence was measured in each well. The measurement was done with Flex Station in Well Scan Mode and in the Bottom Read position at Ex 470 nm, Em 540 nm, Cut off 495 nm, Averaging 3, and Photomultiplier sensitivity: high. In Well Scan Mode of the fluorescence microplate reader Flex Station, one well was divided into nine observation areas and these are measured independently. The presence of approximately 5000 cells in each of 9-divided areas was separately confirmed by Z section measurement of a realtime deconvolution microscope. 2-NBDG and 2-NBDLG were administered with or without Cytochalasin B (37° C., 5 minutes), and after cessation of administration, an operation of adding 250 μL of a KRB solution containing no fluorescently labeled glucose into 50 μL of a solution in a well was repeated 7 times while measuring with a stopwatch, thereby performing washout until the fluorescence intensities of wells in line A and line H set as a control group became equal to the fluorescence intensity of the blank well containing no cell. This process required 7 minutes, and even if cells having broken plasma membrane condition are brought into contact with 2-NBDG and 2-NBDLG, and even if these compounds are once taken up into the cell, these compounds are already eliminated out of the cell and are washed away in measurement, therefore, contribution to an increase in the fluorescence intensity in the whole observation area was judged to be in an ignorable level. This was supported by a separate pharmacological inhibition experiment in which the increase in the fluorescence intensity nearly disappears in the presence of an inhibitor. The above-described method was carried out similarly in the case of other inhibitors. […]

Series [3] deals with acutely dissociated neurons. Description: Confocal imaging of 2-NBDLM+2-TRLG mixture in acutely dissociated neurons of substantia nigra pars reticulata. The class given is cell-based, mouse. The method, then:
NaCl 150 mM, KCl 5 mM, MgCl2 1 mM, CaCl2 2 mM, HEPES 10 mM, pH was adjusted to 7.4 by 1M Tris(2-amino-2-hydroxymethyl-1,3-propanediol) solution. The glucose concentration was 10 mM. For the purpose of inhibiting entrance and elimination of fluorescently labeled mannose via a gap junction/hemichannel, 0.1 mM Carbenoxolone (SIGMA #C4790) was added.
NaCl 124 mM, NaHCO3 26 mM, KCl 5 mM, KH2PO4 1.24 mM, CaCl2 2.4 mM, MgSO4.7H2O 1.3 mM, Glucose 10 mM, adjusted to pH7.4 by 95% O2-5% CO2 aeration.
A solution prepared by dissolving 5 mg of poly-L-lysine hydrobromide (SIGMA P6282) in 50 mL of 0.15 M boric acid (adjusted to pH 8.4 with […]) was stocked and refrigerated. This stock solution was diluted at 1/500 to 1/1000 with 0.15 M boric acid, and a cover slip (13 mm×22 mm, Matsunami No. 0 glass) was immersed in the diluted solution and allowed to fix at room temperature for 20 minutes, then, rinsed with distilled water and naturally dried.
Since 2-NBDLM is a stereoisomer of 2-NBDLG and both compounds have the same molecular weight, these compounds were prepared by basically the same method as for preparation of 2-NBDLG liquid and 2-NBDLG+2-TRLG mixture described in the prior publication WO2010/016587 of the present inventors. The concentration of a solution for the administration was as follows. The whole quantity of a 0.5 mg vial was dissolved in 14.6 mL of a HEPES solution for image acquisition to give a 2-NBDLM solution having a final concentration of 100 μM. The dissolving method was carried out similarly to that for preparation of a 2-NBDLG solution in Example 3.
Acutely dissociated neuronal cells were prepared as described below according to the same method as described in the prior publication WO2010/016587 of the present inventors.
Postnatal 13 to 17-day old (juvenile stage) C57BL/6J mice were anesthetized deeply with urethane (i.p. 1.6 g/kg), decapitated according to an ordinary method, then, brain was taken out while pouring a cold Ringer's solution (0° C.) for dissociation, and placed on an ice-cold petri dish and immediately trimmed, then, coronally sectioned brain slices having a thickness of 400 or 500 μm were prepared by a linear slicer (Dosaka Pro7) in a cold Ringer's solution (0° C.). Then, the slice was allowed to restore for 1 hour at room temperature in a chamber (Acrylic incubation chamber manufactured by Harvard Apparatus) containing the above-described Ringer's solution circulating therein through which 95% O2-5% CO2 had been aerated.
The brain slice was immersed in an enzyme solution (31° C.; kept at pH7.4 by aeration with 95% O2-5% CO2) prepared by dissolving a proteolytic enzyme Pronase (10 mg/60 mL) in the above-described Ringer's solution and enzymatically treated. After predetermined period, the enzymatic reaction was stopped by immediately immersing the brain slice in 50-100 mL of a 10 mM glucose-containing HEPES solution at room temperature.
A 60 or 100 mm plastic dish having a silicon plate attached to the bottom was filled with a 10 mM glucose-containing HEPES solution (room temperature, obtained by removing Carbenoxolon from a HEPES solution for confocal image acquisition), and the above-described brain slice was immersed in the solution. Two 27 gauge syringe needles were used to immobilize the brain slice, and left and right mesencephalic substantia nigra pars reticulata were punched out under a microscope with a 18 gauge syringe needle having a tip deformed into an ellipsoidal shape, and preserved at room temperature in the above-described HEPES solution (35 mm culture dish).
Neurons were dissociated by trituration with glass pipettes adjusted to have various point diameters, and allowed to adhere to a glass cover slip coated with poly-L-lysine.
Administration of a mixture was carried out in the same manner as the method of administration to MIN6 cells described in Example 3 (4) to (6).

Where [4] appears, read: 100 μM 2-NBDLM+20 μM 2-TRLG for 5 minutes.

`CN(C)S(=O)(=O)c1ccc(N[C@H](C=O)[C@H](O)[C@@H](O)[C@@H](O)CO)c2nonc12` [2-DBDLG] showed a Maximum fluorescence wavelength in series [1] of 570 nm.
For the compound `O=[N+]([O-])c1ccc(NC2C(O)OC(CO)[C@@H](O)[C@@H]2O)c2nonc12` (stereo partly drawn) [2-NBDG, 2-[N-(7-nitrobenz-2-oxa-1,3-diazole-4-yl)amino]-2-deoxy-D-glucose, reference compound], the “fluorescence values at tumor-transplanted part (Tumor) versus normal tissue (BG), FIG. 3” value with tumor cells (C6 glioma) (400 nmol i.v., temporal change over 45 minutes, same result in 6 examples) is “fluorescence values at normal tissue (red square, BG) are larger than at the tumor-transplanted part”. For the same compound, the “time from which accumulations at the tumor cell-transplanted part were recognized” value in the series on tumor cells (C6 glioma) (400 nmol/100 μL from the tail vein) was “around 5 minutes after administration”. Further, in the series on tumor cells (C6 glioma) (400 nmol/100 μL from the tail vein, non-fasted mice), the “contrast between tumor-transplanted part and normal tissue (adipocyte-rich dorsal part near neck)” value is recorded as “poor contrast; also recorded: not sufficient”. The “uptake/accumulation in normal tissue” value in the series on tumor cells (C6 glioma) (400 nmol/100 μL from the tail vein, normal tissue (fat tissue on the back, between back bones, muscle)) is recorded as “Intense accumulations”. Further, the “effect of GLUT inhibitor Cytochalasin B on uptake into MIN6 cells” value in series [2] (37° C., Cytochalasin B (10 µM, CB)) is “significant decrease”. Also, in series [2] (37° C., Na(−) buffer, choline substituted), the “uptake into MIN6 cells in buffer containing Na+ versus no Na+ ion (SGLT)” value was “no significant difference”. In series [2] (Phloretin (150 μM, PHT)), the “effect of Phloretin on uptake into MIN6 cells” value is reported as “underwent inhibition of the uptake”.
For the compound `O=[N+]([O-])c1ccc(NC2C(O)OC(CO)[C@H](O)C2O)c2nonc12` (stereo partly drawn) [2-NBDLM, 2-Deoxy-2-[N-(7-nitrobenz-2-oxa-1,3-diazol-4-yl)amino]-L-mannose], in series [3] (100 μM 2-NBDLM+20 μM 2-TRLG), the “fluorescence in degraded cells, 10 minutes after cessation of administration” value is “already decreased significantly”; the “fluorescence in healthy neuron, 10 minutes after cessation of administration” value is given as “preserved in the cell”; the “fluorescence in healthy neuron, 22 minutes after cessation of administration” value is on record as “preserved in the cell”; the “uptake into healthy neuron, 2 minutes after cessation of administration” value is “all cells take up”. For the same compound, the “uptake into normal neurons (conclusion)” value in series [3] (100 μM 2-NBDLM+20 μM 2-TRLG) is recorded as “taken up into normal mouse neurons”. In series [3] (setting [4]), the “uptake into degraded cells during administration” value is “completely invading a cell” and the “uptake into healthy neuron during administration” value is “taken up into a cell during administration”. For the same compound, in series [1], the Maximum excited wavelength was determined as 472 nm and the Maximum fluorescence wavelength is on record as 539 nm.
In series [1], `O=[N+]([O-])c1ccc(NC2C(O)OC(CF)[C@H](O)C2O)c2nonc12` (stereo partly drawn) [6-F-2-NBDLG, 2,6-Dideoxy-6-fluoro-2-[N-(7-nitrobenz-2-oxa-1,3-diazol-4-yl)amino]-L-glucopyranose] had a Maximum excited wavelength of 472 nm and a Maximum fluorescence wavelength of 538 nm.
